Results reported in patent publication US20260083865A1, “PROSTATE SPECIFIC MEMBRANE ANTIGEN (PSMA) LIGANDS AND USE THEREOF” (priority 2022, published 2026).
Numbered stars: 1 amine (or outer) side, 2 acyl side, 3 side chain; on linkers, the order of the positions; unused ones are H or OH. Bridge positions count the residues as written; N and C are the ends. Square brackets hold non-standard residues; d marks the D form. Peptide text beside a SMILES is read from it. * marks the point of attachment. X3 = O=C(O)CN1CCN(CC(=O)O)CCN(CC(=O)NCCCOCCOCCOCCCN*)CCN(CC(=O)O)CC1; DOTA = O=C(O)CN1CCN(CC(=O)O)CCN(CC(=O)*)CCN(CC(=O)O)CC1; Trp(5-Br) = N[C@@H](Cc1c[nH]c2ccc(Br)cc12)C(=O)O; Phe(3-Cl) = N[C@@H](Cc1cccc(Cl)c1)C(=O)O; Phe(4-Cl) = N[C@@H](Cc1ccc(Cl)cc1)C(=O)O; Arg(Me) = CNC(=N)NCCC[C@H](N)C(=O)O; Lys(Me2) = CN(C)CCCC[C@H](N)C(=O)O; X1 = O=C(CC1CCN([*:1])CC1)[*:2]; Cit = NC(=O)NCCC[C@H](N)C(=O)O; Lys(Me) = CNCCCC[C@H](N)C(=O)O; Suc = O=C(CCC(=O)[*:2])[*:1]; Tle = CC(C)(C)[C@H](N)C(=O)O; 4Amb = NCc1ccc(C(=O)O)cc1; Nle = CCCC[C@H](N)C(=O)O; NHCH2tBu = CC(C)(C)CN*; Aib = CC(C)(N)C(=O)O; CO = O=C([*:1])[*:2]; NHBu = CCCCN*

Columns and labels:
[1] = target: T1, PSMA-expressing C4-2 cells (Homo sapiens, UniProt Q04609); assay: FACS binding assay (competition with 50 nM PSM-0183); conditions: FACS binding, C4-2 cells, competition with 50 nM PSM-0183; category; read-out: pIC50 [C4-2] CAT (converted)
T1 construct: PSMA-expressing C4-2 cells (ATCC, Cat. No. CRL-3314) were cultured in RPMI-1640; host or cells: C4-2 cells
T1 sequence (Q04609 whole entry): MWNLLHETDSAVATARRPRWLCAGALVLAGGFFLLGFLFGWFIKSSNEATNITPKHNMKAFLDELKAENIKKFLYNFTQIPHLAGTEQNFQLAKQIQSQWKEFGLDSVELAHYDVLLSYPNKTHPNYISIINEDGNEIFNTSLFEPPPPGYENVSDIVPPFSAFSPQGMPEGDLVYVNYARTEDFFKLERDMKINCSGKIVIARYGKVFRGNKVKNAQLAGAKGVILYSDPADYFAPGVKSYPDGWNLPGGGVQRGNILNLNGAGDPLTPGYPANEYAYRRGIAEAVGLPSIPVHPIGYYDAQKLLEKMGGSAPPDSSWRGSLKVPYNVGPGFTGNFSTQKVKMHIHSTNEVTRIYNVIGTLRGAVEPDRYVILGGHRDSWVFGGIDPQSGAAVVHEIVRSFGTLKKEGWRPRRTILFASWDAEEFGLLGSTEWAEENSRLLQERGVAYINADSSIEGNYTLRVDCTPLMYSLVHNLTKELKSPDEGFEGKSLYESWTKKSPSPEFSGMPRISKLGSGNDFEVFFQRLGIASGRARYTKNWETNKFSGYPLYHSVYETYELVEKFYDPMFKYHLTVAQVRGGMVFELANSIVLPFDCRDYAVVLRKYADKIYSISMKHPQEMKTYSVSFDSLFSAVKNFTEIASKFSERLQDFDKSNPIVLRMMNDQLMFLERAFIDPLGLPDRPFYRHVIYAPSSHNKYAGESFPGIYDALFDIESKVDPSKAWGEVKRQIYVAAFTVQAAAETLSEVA
Method: In order to determine binding of compounds according to the present invention to PSMA-expressing cells, a FACS binding assay was established.
PSMA-expressing C4-2 cells (ATCC, Cat. No. CRL-3314) were cultured in RPMI-1640 (Pan Biotech, Cat. No. P04-18050) including 10% fetal calf serum (Biochrom) and 100 U/ml penicillin and 100 μg/mL streptomycin (Sigma, Cat. No. P0781). Cells were detached with Accutase (Biolegend, Cat. No. BLD-423201) and washed in FACS buffer (PBS (Sigma, Cat. No. D8537) including 1% fetal calf serum). Cells were diluted in FACS buffer to a final concentration of 500,000 cells per mL. 200 μL of the cell suspension were transferred to a u-shaped non-binding 96-well plate (Greiner Bio-One, Cat. No. 650901) and cells were washed in ice-cold FACS buffer.
For IC50 determination, C4-2 cells were incubated with 50 nM PSM-0183 (Ac-Thr-Aib-Phe[Cys-Lys-Arg-Aib-Asn-Cys]-Tle-Thr-Asp-Ttds-Ttds-AF488N3K-NH2) in the presence of increasing concentrations of test compounds at 4° C. for 1 hour. After two wash steps with ice-cold FACS buffer, cells were analyzed in an Attune NxT flow cytometer. Median fluorescence intensities (MFI) of the FITC/AF488-channel were calculated by Attune NxT software. MFI values were plotted against peptide concentration and four parameter logistic (4PL) curve fitting and IC50/pIC50 calculations were performed using ActivityBase software (IDBS).

[2] = target: T2, Fc-fusion protein of human PSMA (hPSMA-Fc) (Homo sapiens, UniProt Q04609); assay: Surface plasmon resonance assay (Biacore T200, single cycle kinetic); assay type: binding; conditions: SPR, hPSMA-Fc, single cycle kinetic, 25° C.; category; read-out: pKD CAT (converted)
T2 construct: purchased Acro Biosystems PSA-H5264
T2 sequence (Q04609 44-750 limits assumed): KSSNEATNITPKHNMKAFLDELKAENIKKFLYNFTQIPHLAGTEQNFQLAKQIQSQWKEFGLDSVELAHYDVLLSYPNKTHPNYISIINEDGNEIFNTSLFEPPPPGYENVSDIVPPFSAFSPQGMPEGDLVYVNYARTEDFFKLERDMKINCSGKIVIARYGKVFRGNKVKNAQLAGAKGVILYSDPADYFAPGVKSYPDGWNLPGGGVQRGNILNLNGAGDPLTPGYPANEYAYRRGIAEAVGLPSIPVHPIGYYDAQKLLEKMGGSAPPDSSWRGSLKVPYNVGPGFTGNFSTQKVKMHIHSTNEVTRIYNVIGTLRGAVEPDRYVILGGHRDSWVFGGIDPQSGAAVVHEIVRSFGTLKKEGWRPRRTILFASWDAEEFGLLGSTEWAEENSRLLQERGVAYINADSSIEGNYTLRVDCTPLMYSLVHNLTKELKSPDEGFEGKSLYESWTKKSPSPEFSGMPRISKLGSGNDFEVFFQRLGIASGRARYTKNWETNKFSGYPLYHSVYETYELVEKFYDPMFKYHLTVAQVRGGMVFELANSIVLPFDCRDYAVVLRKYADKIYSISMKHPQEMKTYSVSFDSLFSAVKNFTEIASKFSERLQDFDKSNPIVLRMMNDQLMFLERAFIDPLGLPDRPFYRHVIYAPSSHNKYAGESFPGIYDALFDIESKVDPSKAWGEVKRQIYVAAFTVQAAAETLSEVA
Method: Surface plasmon resonance (SPR) studies were performed using a Biacore™ T200 SPR system. Briefly, polarized light is directed towards a gold-labeled sensor surface, and minimum intensity reflected light is detected. The angle of reflected light changes as molecules bind and dissociate.
Fc-fusion protein of human PSMA (hPSMA-Fc, Acro Biosystems, Cat #PSA-H5264) was captured on a Fc-capture chip (Biacore™ CM5 sensor chip coated with ˜300 RU of an Fc-binding peptide). hPSMA-Fc was diluted in Running Buffer (HBST, 0.1% DMSO) to a final concentration of 100 nM and then flushed over the Fc-capture chip to immobilized ˜1000 RUs.
Stock solutions of test compounds were prepared by dissolving each compound in DMSO. DMSO stock solution were diluted 1:1000 in Running Buffer without DMSO. Further sequential dilutions were made with Running Buffer containing 0.1% DMSO. SPR binding analyses were performed in Single Cycle Kinetic (SCK) mode at 25° C. Flow cell coated with the Fc-binding peptide only served as reference flowcell. After each SCK run, hPSMA-Fc was removed with 10 mM glycine buffer, pH 1.5.
In between every three SCK measurements, a blank run with Running Buffer instead of test compound was included to correct for baseline drifts (double blanking method).
Table 5 describes the protocol steps for Fc-fusion target capturing and assessment of the binding kinetics.
For each test compound, SPR raw data in the form of resonance units (RU) were plotted as sensorgrams using the Biacore™ T200 control software. The signal from the blank sensorgram was subtracted from that of the test compound sensorgram (blank corrected). The blank corrected sensorgram was corrected for baseline drift by subtracting the sensorgram of a SCK run without the test compound (running buffer only). The dissociation constant (KD) was calculated from Blank-normalized SPR data using the 1:1 Langmuir binding model from the Biacore™ Insight Evaluation software. The pKD value (negative decadic logarithm of dissociation constant) was calculated using Microsoft Excel.

Row | SMILES | IC50 [1] | Kd [2]
1 | CCCC[C@H](NC(=O)[C@@H]1CSSC[C@H](NC(=O)[C@H](Cc2ccccc2)NC(=O)[C@H](C)NC(=O)[C@@H](NC(C)=O)[C@@H](C)O)C(=O)N[C@@H](CCCCN)C(=O)N[C@@H](CCCNC(=N)N)C(=O)N[C@@H](CCC(=O)O)C(=O)N[C@@H](CC(N)=O)C(=O)N1)C(=O)N[C@@H](C(=O)N[C@H](CC(=O)O)C(N)=O)[C@H](C)O [PSM-0197, Ac-Thr-Ala-Phe-[Cys-Lys-Arg-Glu-Asn-Cys]-Nle-Thr-Asp-NH2] (Ac-TAFCKRENC[Nle][dT][dD]-NH2; disulfide 4-9) | < 200 nM | 12.6 to 126 nM
2 | C[C@@H](O)[C@H](NC(=O)[C@@H](NC(=O)[C@@H]1CSSC[C@H](NC(=O)[C@H](Cc2ccccc2)NC(=O)C(C)(C)NC(=O)[C@@H](NC(=O)CC2CCN(C(=O)CN3CCN(CC(=O)O)CCN(CC(=O)O)CCN(CC(=O)O)CC3)CC2)C(C)(C)C)C(=O)N[C@@H](CCCCN)C(=O)N[C@@H](CCCNC(=N)N)C(=O)NC(C)(C)C(=O)N[C@@H](CC(N)=O)C(=O)N1)C(C)(C)C)C(N)=O [PSM-0198, DOTA-Cmp-Tle-Aib-Phe-[Cys-Lys-Arg-Aib-Asn-Cys]-Tle-Thr-NH2] ({DOTA}-[X1][Tle][Aib]FCKR[Aib]NC[Tle]T-NH2; disulfide 5-10) | 1260 to 3160 nM | 126 to 501 nM
3 | CNCCCC[C@@H]1NC(=O)[C@@H](NC(=O)[C@H](Cc2ccc(Cl)cc2)NC(=O)C(C)(C)NC(=O)[C@@H](NC(=O)CC2CCN(C(=O)CN3CCN(CC(=O)O)CCN(CC(=O)O)CCN(CC(=O)O)CC3)CC2)[C@@H](C)O)CSSC[C@@H](C(=O)N[C@H](C(N)=O)C(C)(C)C)NC(=O)[C@H](CC(N)=O)NC(=O)C(C)(C)NC(=O)[C@H](CCCNC(=N)N)NC1=O [PSM-0200, DOTA-Cmp-Thr-Aib-Pcf-[Cys-Lys(Me)-Arg-Aib-Asn-Cys]-Tle-NH2] ({DOTA}-[X1]T[Aib][Phe(4-Cl)]C[Lys(Me)]R[Aib]NC[Tle]-NH2; disulfide 5-10) | < 200 nM | < 12.6 nM
4 | C[C@@H]1NC(=O)[C@H](CCCNC(=N)N)NC(=O)[C@H](CCCCN)NC(=O)[C@@H](NC(=O)[C@H](Cc2ccccc2)NC(=O)[C@H](C)NC(=O)[C@@H](NC(=O)CCC(=O)NCCCOCCOCCOCCCNC(=O)CN2CCN(CC(=O)O)CCN(CC(=O)O)CCN(CC(=O)O)CC2)[C@@H](C)O)CSSC[C@@H](C(N)=O)NC(=O)[C@H](CC(N)=O)NC1=O [PSM-0201, DOTA-Ttds-Thr-Ala-Phe-[Cys-Lys-Arg-Ala-Asn-Cys]-NH2] ({X3-Suc}-TAFCKRANC-NH2; disulfide 4-9) | > 3160 nM | > 501 nM
5 | C[C@@H](O)[C@H](NC(=O)[C@@H](NC(=O)[C@@H]1CSSC[C@H](NC(=O)[C@H](Cc2ccccc2)NC(=O)C(C)(C)NC(=O)[C@@H](NC(=O)c2ccc(CNC(=O)CN3CCN(CC(=O)O)CCN(CC(=O)O)CCN(CC(=O)O)CC3)cc2)[C@@H](C)O)C(=O)N[C@@H](CCCCN)C(=O)N[C@@H](CCCNC(=N)N)C(=O)NC(C)(C)C(=O)N[C@@H](CC(N)=O)C(=O)N1)C(C)(C)C)C(N)=O [PSM-0202, DOTA-Pamb-Thr-Aib-Phe-[Cys-Lys-Arg-Aib-Asn-Cys]-Tle-Thr-NH2] ({DOTA-4Amb}-T[Aib]FCKR[Aib]NC[Tle]T-NH2; disulfide 4-9) | < 200 nM | < 12.6 nM
6 | CNC(=N)NCCC[C@@H]1NC(=O)[C@H](CCCCN(C)C)NC(=O)[C@@H](NC(=O)[C@H](Cc2ccc(Cl)cc2)NC(=O)C(C)(C)NC(=O)[C@@H](NC(=O)CC2CCN(C(=O)CN3CCN(CC(=O)O)CCN(CC(=O)O)CCN(CC(=O)O)CC3)CC2)[C@@H](C)O)CSSC[C@@H](C(=O)N[C@H](C(=O)N[C@H](C(N)=O)[C@@H](C)O)C(C)(C)C)NC(=O)[C@H](CC(N)=O)NC(=O)C(C)(C)NC1=O [PSM-0203, DOTA-Cmp-Thr-Aib-Pcf-[Cys-KMe2-Arg(Me)-Aib-Asn-Cys]-Tle-Thr-NH2] ({DOTA}-[X1]T[Aib][Phe(4-Cl)]C[Lys(Me2)][Arg(Me)][Aib]NC[Tle]T-NH2; disulfide 5-10) | < 200 nM | < 12.6 nM
7 | CCCCNC(=O)N[C@H](C(=O)NC(C)(C)C(=O)N[C@@H](Cc1ccc(Cl)cc1)C(=O)N[C@H]1CSSC[C@@H](C(=O)N[C@H](C(=O)N[C@H](C(=O)N2CCC(CC(=O)N[C@H](CCCCNC(=O)CN3CCN(CC(=O)O)CCN(CC(=O)O)CCN(CC(=O)O)CC3)C(N)=O)CC2)[C@@H](C)O)C(C)(C)C)NC(=O)[C@H](CC(N)=O)NC(=O)C(C)(C)NC(=O)[C@H](CCCNC(N)=O)NC(=O)[C@H](CCCCN)NC1=O)[C@@H](C)O [PSM-0204, nBuCAyl-Thr-Aib-Pcf-[Cys-Lys-Cit-Aib-Asn-Cys]-Tle-Thr-Cmp-lys(DOTA)-NH2] ({NHBu-CO}-T[Aib][Phe(4-Cl)]CK[Cit][Aib]NC[Tle]T[X1][dK](DOTA)-NH2; disulfide 4-9) | < 200 nM | 12.6 to 126 nM
8 | CCCC[C@@H]1NC(=O)[C@@H](NC(=O)[C@H](Cc2ccc(Cl)cc2)NC(=O)C(C)(C)NC(=O)[C@@H](NC(C)=O)[C@@H](C)O)CSSC[C@@H](C(=O)N[C@H](C(=O)N[C@H](C(N)=O)[C@@H](C)O)C(C)(C)C)NC(=O)[C@H](CC(N)=O)NC(=O)C(C)(C)NC(=O)[C@H](CCCNC(=N)N)NC1=O [PSM-0205, Ac-Thr-Aib-Pcf-[Cys-Nle-Arg-Aib-Asn-Cys]-Tle-Thr-NH2] (Ac-T[Aib][Phe(4-Cl)]C[Nle]R[Aib]NC[Tle]T-NH2; disulfide 4-9) | < 200 nM | < 12.6 nM
9 | CNCCCC[C@@H]1NC(=O)[C@@H](NC(=O)[C@H](Cc2c[nH]c3ccc(Br)cc23)NC(=O)C(C)(C)NC(=O)[C@@H](NC(=O)CC2CCN(C(=O)CN3CCN(CC(=O)O)CCN(CC(=O)O)CCN(CC(=O)O)CC3)CC2)[C@@H](C)O)CSSC[C@@H](C(=O)N[C@H](C(=O)N[C@H](C(N)=O)[C@@H](C)O)C(C)(C)C)NC(=O)[C@H](CC(N)=O)NC(=O)C(C)(C)NC(=O)[C@H](CCCNC(=N)NC)NC1=O [PSM-0206, DOTA-Cmp-Thr-Aib-5Brw-[Cys-Lys(Me)-Arg(Me)-Aib-Asn-Cys]-Tle-Thr-NH2] ({DOTA}-[X1]T[Aib][Trp(5-Br)]C[Lys(Me)][Arg(Me)][Aib]NC[Tle]T-NH2; disulfide 5-10) | 1260 to 3160 nM | > 501 nM
10 | CCCCNC(=O)N[C@H](C(=O)NC(C)(C)C(=O)N[C@@H](Cc1cccc(Cl)c1)C(=O)N[C@H]1CSSC[C@@H](C(=O)N[C@H](C(=O)N[C@H](C(=O)N2CCC(CC(=O)N[C@H](CCCCNC(=O)CN3CCN(CC(=O)O)CCN(CC(=O)O)CCN(CC(=O)O)CC3)C(N)=O)CC2)[C@@H](C)O)C(C)(C)C)NC(=O)[C@H](CC(N)=O)NC(=O)C(C)(C)NC(=O)[C@H](CCCNC(N)=O)NC(=O)[C@H](CCCCN)NC1=O)[C@@H](C)O [PSM-0207, nBuCAyl-Thr-Aib-Mcf-[Cys-Lys-Cit-Aib-Asn-Cys]-Tle-Thr-Cmp-lys(DOTA)-NH2] ({NHBu-CO}-T[Aib][Phe(3-Cl)]CK[Cit][Aib]NC[Tle]T[X1][dK](DOTA)-NH2; disulfide 4-9) | < 200 nM | 12.6 to 126 nM
11 | CC(=O)N[C@H](C(=O)NC(C)(C)C(=O)N[C@@H](Cc1ccccc1)C(=O)N[C@H]1CSSC[C@@H](C(=O)NCC(C)(C)C)NC(=O)[C@H](CC(N)=O)NC(=O)C(C)(C)NC(=O)[C@H](CCCNC(=N)N)NC(=O)[C@H](CCCCN)NC1=O)[C@@H](C)O [PSM-0208, Ac-Thr-Aib-Phe-[Cys-Lys-Arg-Aib-Asn-Cys]-NHnPen] (Ac-T[Aib]FCKR[Aib]NC-NHCH2tBu; disulfide 4-9) | 200 to 1260 nM | 126 to 501 nM
